Laboratory results taken from patent publication US20230322761A1, “DEGRADATION OF BRUTON'S TYROSINE KINASE (BTK) BY CONJUGATION OF BTK INHIBITORS WITH E3 LIGASE LIGAND AND METHODS OF USE” (BEIGENE, LTD., priority 2020, published 2023).

Biological target: T1, BTK (Homo sapiens, UniProt Q06187)
T1 construct: endogenous in cells; host or cells: TMD-8 cells
Assay: BTK degradation in TMD-8 cells, HTRF assay after 6 h treatment
Format: cell-based
Conditions: IC50 (DC50) of BTK degradation
Method in brief: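 Remaining BTK was quantified by HTRF in lysates of TMD-8 cells after 6 h exposure to an 8-point, 6-fold compound series (500× stocks in DMSO starting at 1 mM; 0.2% DMSO). Lysis 30 min, antibodies overnight at room temperature, ratio read at 665/620 nm; DC50 fitted with a four-parameter logistic equation.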

T1 sequence (Q06187 whole entry): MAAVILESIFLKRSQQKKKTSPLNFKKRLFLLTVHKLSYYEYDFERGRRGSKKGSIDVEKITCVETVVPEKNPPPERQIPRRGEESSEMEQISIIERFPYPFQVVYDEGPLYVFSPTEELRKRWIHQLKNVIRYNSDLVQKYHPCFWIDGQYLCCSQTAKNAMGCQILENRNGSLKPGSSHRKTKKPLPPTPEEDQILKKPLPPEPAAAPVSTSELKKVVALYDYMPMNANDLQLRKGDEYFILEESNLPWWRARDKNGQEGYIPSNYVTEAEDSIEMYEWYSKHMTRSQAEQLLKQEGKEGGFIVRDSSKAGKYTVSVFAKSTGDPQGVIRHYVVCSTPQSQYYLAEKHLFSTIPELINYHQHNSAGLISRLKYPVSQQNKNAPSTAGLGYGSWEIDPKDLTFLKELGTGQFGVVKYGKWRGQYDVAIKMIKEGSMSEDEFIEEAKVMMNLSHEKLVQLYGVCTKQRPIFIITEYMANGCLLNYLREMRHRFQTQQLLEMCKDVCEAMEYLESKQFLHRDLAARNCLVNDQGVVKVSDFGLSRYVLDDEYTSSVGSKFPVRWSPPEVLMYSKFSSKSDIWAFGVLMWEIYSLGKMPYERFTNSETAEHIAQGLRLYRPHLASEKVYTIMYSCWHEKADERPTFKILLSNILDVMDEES

DC50 [nM]	Compound
3.5	Cc1cc(-c2n[nH]c3ncc(-c4ccc(C5CCN(CCc6ccc(C7CCC(=O)NC7=O)cc6)CC5)nc4)cc23)ccc1[C@@H](C)NC(=O)c1noc(C(C)(C)C)n1 (stereo partly drawn) [Example 117, 5-(tert-butyl)-N-((1R)-1-(4-(5-(6-(1-(4-(2,6-dioxopiperidin-3-yl)phenethyl)piperidin-4-yl)pyridin-3-yl)-1H-pyrazolo[3,4-b]pyridin-3-yl)-2-methylphenyl)ethyl)-1,2,4-oxadiazole-3-carboxamide]
8.07	COc1cc(OCCCN2CCN(c3ccc(-c4cnc5[nH]nc(-c6ccc([C@@H](C)NC(=O)c7nc(C(C)(C)C)no7)c(C)c6)c5c4)cc3)CC2)ccc1N1CCC(=O)NC1=O [Example 118, (R)-3-(tert-butyl)-N-(1-(4-(5-(4-(4-(3-(4-(2,4-dioxotetrahydropyrimidin-1(2H)-yl)-3-methoxyphenoxy)propyl)piperazin-1-yl)phenyl)-1H-pyrazolo[3,4-b]pyridin-3-yl)-2-methylphenyl)ethyl)-1,2,4-oxadiazole-5-carboxamide]
2.12	Cc1cc(-c2n[nH]c3ncc(-c4ccc(N5CCN(CCc6ccc(N7CCC(=O)NC7=O)c(C)c6)CC5)cc4)cc23)ccc1[C@@H](C)NC(=O)c1noc(C(C)(C)C)n1 [Example 119, (R)-5-(tert-butyl)-N-(1-(4-(5-(4-(4-(4-(2,4-dioxotetrahydropyrimidin-1(2H)-yl)-3-methylphenethyl)piperazin-1-yl)phenyl)-1H-pyrazolo[3,4-b]pyridin-3-yl)-2-methylphenyl)ethyl)-1,2,4-oxadiazole-3-carboxamide]
5.82	COc1cc(-c2cnc3[nH]nc(-c4ccc([C@@H](C)NC(=O)c5noc(C(C)(C)C)n5)c(C)c4)c3c2)ccc1N1CCN(CC2CCN(c3ccc(N4CCC(=O)NC4=O)cc3)CC2)CC1 [Example 120, (R)-5-(tert-butyl)-N-(1-(4-(5-(4-(4-((1-(4-(2,4-dioxotetrahydropyrimidin-1(2H)-yl)phenyl)piperidin-4-yl)methyl)piperazin-1-yl)-3-methoxyphenyl)-1H-pyrazolo[3,4-b]pyridin-3-yl)-2-methylphenyl)ethyl)-1,2,4-oxadiazole-3-carboxamide]
2.39	CC(C)(C)c1nc(C(=O)NCc2ccc(-c3n[nH]c4ncc(-c5ccc(N6CCN(CC7CCN(c8ccc(N9CCC(=O)NC9=O)cc8)CC7)CC6)cc5)cc34)cc2CO)no1 [Example 121, 5-(tert-butyl)-N-(4-(5-(4-(4-((1-(4-(2,4-dioxotetrahydropyrimidin-1(2H)-yl)phenyl)piperidin-4-yl)methyl)piperazin-1-yl)phenyl)-1H-pyrazolo[3,4-b]pyridin-3-yl)-2-(hydroxymethyl)benzyl)-1,2,4-oxadiazole-3-carboxamide]
2.22	Cc1cc(-c2n[nH]c3ncc(-c4ccc(N5CCN(CCc6ccc(N7CCC(=O)NC7=O)cc6)CC5)cn4)cc23)ccc1[C@@H](C)NC(=O)c1noc(C(C)(C)C)n1 [Example 122, (R)-5-(tert-butyl)-N-(1-(4-(5-(5-(4-(4-(2,4-dioxotetrahydropyrimidin-1(2H)-yl)phenethyl)piperazin-1-yl)pyridin-2-yl)-1H-pyrazolo[3,4-b]pyridin-3-yl)-2-methylphenyl)ethyl)-1,2,4-oxadiazole-3-carboxamide]
14.2	Cc1cc(-c2n[nH]c3ncc(-c4ccc(N5CCN(CCc6ccc(OC7CCC(=O)NC7=O)cc6)CC5)cc4)cc23)ccc1[C@@H](C)NC(=O)c1noc(C(C)(C)C)n1 (stereo partly drawn) [Example 123, 5-(tert-butyl)-N-((1R)-1-(4-(5-(4-(4-(4-((2,6-dioxopiperidin-3-yl)oxy)phenethyl)piperazin-1-yl)phenyl)-1H-pyrazolo[3,4-b]pyridin-3-yl)-2-methylphenyl)ethyl)-1,2,4-oxadiazole-3-carboxamide]
1.42	Cc1cc(-c2n[nH]c3ncc(-c4ccc(N5CCN(CC6CCN(c7ccc(N8CCC(=O)NC8=O)cn7)CC6)CC5)cc4)cc23)ccc1[C@@H](C)NC(=O)c1noc(C(C)(C)C)n1 [Example 124, (R)-5-(tert-butyl)-N-(1-(4-(5-(4-(4-((1-(5-(2,4-dioxotetrahydropyrimidin-1(2H)-yl)pyridin-2-yl)piperidin-4-yl)methyl)piperazin-1-yl)phenyl)-1H-pyrazolo[3,4-b]pyridin-3-yl)-2-methylphenyl)ethyl)-1,2,4-oxadiazole-3-carboxamide]
15.2	Cc1cc(-c2n[nH]c3ncc(-c4ccc(N5CCN(CCc6ccc(C7CCC(=O)NC7=O)cc6)CC5)cc4)cc23)ccc1[C@@H](C)NC(=O)c1cn(C(C)(C)C)nn1 (stereo partly drawn) [Example 125, 1-(tert-butyl)-N-((1R)-1-(4-(5-(4-(4-(4-(2,6-dioxopiperidin-3-yl)phenethyl)piperazin-1-yl)phenyl)-1H-pyrazolo[3,4-b]pyridin-3-yl)-2-methylphenyl)ethyl)-1H-1,2,3-triazole-4-carboxamide]
6.79	Cc1cc(-c2n[nH]c3ncc(-c4ccc(N5CC6CC5CN6CC5CCN(c6ccc(N7CCC(=O)NC7=O)cc6)CC5)cn4)cc23)ccc1[C@@H](C)NC(=O)c1noc(C(C)(C)C)n1 (stereo partly drawn) [Example 127, 5-(tert-butyl)-N-((1R)-1-(4-(5-(5-(5-((1-(4-(2,4-dioxotetrahydropyrimidin-1(2H)-yl)phenyl)piperidin-4-yl)methyl)-2,5-diazabicyclo[2.2.1]heptan-2-yl)pyridin-2-yl)-1H-pyrazolo[3,4-b]pyridin-3-yl)-2-methylphenyl)ethyl)-1,2,4-oxadiazole-3-carboxamide]
5.84	Cc1cc(-c2n[nH]c3ncc(-c4ccc(CCN5CCN(c6ccc(N7CCC(=O)NC7=O)cc6)CC5)cc4)cc23)ccc1[C@@H](C)NC(=O)c1noc(C(C)(C)C)n1 [Example 128, (R)-5-(tert-butyl)-N-(1-(4-(5-(4-(2-(4-(4-(2,4-dioxotetrahydropyrimidin-1(2H)-yl)phenyl)piperazin-1-yl)ethyl)phenyl)-1H-pyrazolo[3,4-b]pyridin-3-yl)-2-methylphenyl)ethyl)-1,2,4-oxadiazole-3-carboxamide]
3.73	Cc1cc(-c2n[nH]c3ncc(-c4ccc(N5CCN(CCc6ccc(N7CCC(=O)NC7=O)cc6)CC5)cc4)cc23)ccc1[C@@H](C)NC(=O)c1noc(C(C)(C)C)n1 [Example 129, (R)-5-(tert-butyl)-N-(1-(4-(5-(4-(4-(4-(2,4-dioxotetrahydropyrimidin-1(2H)-yl)phenethyl)piperazin-1-yl)phenyl)-1H-pyrazolo[3,4-b]pyridin-3-yl)-2-methylphenyl)ethyl)-1,2,4-oxadiazole-3-carboxamide]
5.28	COc1cc(OCCCN2CCN(c3ccc(-c4cnc5[nH]nc(-c6ccc([C@@H](C)NC(=O)c7noc(C(C)(C)C)n7)c(C)c6)c5c4)cc3)CC2)ccc1NC1CCC(=O)NC1=O (stereo partly drawn) [Example 130, 5-(tert-butyl)-N-((1R)-1-(4-(5-(4-(4-(3-(4-((2,6-dioxopiperidin-3-yl)amino)-3-methoxyphenoxy)propyl)piperazin-1-yl)phenyl)-1H-pyrazolo[3,4-b]pyridin-3-yl)-2-methylphenyl)ethyl)-1,2,4-oxadiazole-3-carboxamide]
5.9	Cc1cc(-c2n[nH]c3ncc(-c4ccc(N5CCN(CCc6ccc(NC7CCC(=O)NC7=O)cc6)CC5)cc4)cc23)ccc1[C@@H](C)NC(=O)c1noc(C(C)(C)C)n1 (stereo partly drawn) [Example 131, 5-(tert-butyl)-N-((1R)-1-(4-(5-(4-(4-(4-((2,6-dioxopiperidin-3-yl)amino)phenethyl)piperazin-1-yl)phenyl)-1H-pyrazolo[3,4-b]pyridin-3-yl)-2-methylphenyl)ethyl)-1,2,4-oxadiazole-3-carboxamide]
> 2000	Cc1cc(-c2n[nH]c3ncc(-c4ccc(N5CC6CC5CN6CCc5ccc(N6CCC(=O)NC6=O)cc5)cn4)cc23)ccc1[C@@H](C)NC(=O)c1noc(C(C)(C)C)n1 (stereo partly drawn) [Example 132, 5-(tert-butyl)-N-((1R)-1-(4-(5-(5-(5-(4-(2,4-dioxotetrahydropyrimidin-1(2H)-yl)phenethyl)-2,5-diazabicyclo[2.2.1]heptan-2-yl)pyridin-2-yl)-1H-pyrazolo[3,4-b]pyridin-3-yl)-2-methylphenyl)ethyl)-1,2,4-oxadiazole-3-carboxamide]
1.96	Cc1cc(-c2n[nH]c3ncc(-c4ccc(N5CC6CC5CN6CCc5ccc(C6CCC(=O)NC6=O)cc5)cn4)cc23)ccc1[C@@H](C)NC(=O)c1noc(C(C)(C)C)n1 (stereo partly drawn) [Example 133, 5-(tert-butyl)-N-((1R)-1-(4-(5-(5-(5-(4-(2,6-dioxopiperidin-3-yl)phenethyl)-2,5-diazabicyclo[2.2.1]heptan-2-yl)pyridin-2-yl)-1H-pyrazolo[3,4-b]pyridin-3-yl)-2-methylphenyl)ethyl)-1,2,4-oxadiazole-3-carboxamide]
9.96	Cc1cc(-c2n[nH]c3ncc(-c4ccc(N5CCN(CC6CCN(c7ccc(N8CCC(=O)NC8=O)cc7F)CC6)CC5)cc4)cc23)ccc1[C@@H](C)NC(=O)c1noc(C(C)(C)C)n1 [Example 134, (R)-5-(tert-butyl)-N-(1-(4-(5-(4-(4-((1-(4-(2,4-dioxotetrahydropyrimidin-1(2H)-yl)-2-fluorophenyl)piperidin-4-yl)methyl)piperazin-1-yl)phenyl)-1H-pyrazolo[3,4-b]pyridin-3-yl)-2-methylphenyl)ethyl)-1,2,4-oxadiazole-3-carboxamide]
12.7	Cc1cc(-c2n[nH]c3ncc(-c4ccc(N5CCN(CC6CCN(c7ccc(N8CCC(=O)NC8=O)cc7C)CC6)CC5)cc4)cc23)ccc1[C@@H](C)NC(=O)c1noc(C(C)(C)C)n1 [Example 135, (R)-5-(tert-butyl)-N-(1-(4-(5-(4-(4-((1-(4-(2,4-dioxotetrahydropyrimidin-1(2H)-yl)-2-methylphenyl)piperidin-4-yl)methyl)piperazin-1-yl)phenyl)-1H-pyrazolo[3,4-b]pyridin-3-yl)-2-methylphenyl)ethyl)-1,2,4-oxadiazole-3-carboxamide]
